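GI50: concentration for 50% inhibition of growth. TGI: total growth inhibition.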
Legend:
Assay in all cases: DTP human tumour cell line panel, 384-well format
[1] = test system: 786-0 renal
[2] = test system: A498 renal
[3] = test system: A549 NSCLC
[4] = test system: ACHN renal
[5] = test system: BT-549 breast
[6] = test system: CAKI-1 renal
[7] = test system: CCRF-CEM leukemia
[8] = test system: COLO 205 colon
[9] = test system: DU-145 prostate
[10] = test system: EKVX NSCLC
[11] = test system: HCC-2998 colon
[12] = test system: HCT-116 colon
[13] = test system: HCT-15 colon
[14] = test system: HL-60(TB) leukemia
[15] = test system: HOP-62 NSCLC
[16] = test system: HOP-92 NSCLC
[17] = test system: HS 578T breast
[18] = test system: HT29 colon
[19] = test system: IGROV1 ovarian
[20] = test system: K-562 leukemia
[21] = test system: KM12 colon
[22] = test system: LOX IMVI melanoma
[23] = test system: M14 melanoma
[24] = test system: MALME-3M melanoma
[25] = test system: MCF7 breast
[26] = test system: MDA-MB-231 breast
[27] = test system: MDA-MB-435 melanoma
[28] = test system: MDA-MB-468 breast
[29] = test system: MOLT-4 leukemia
[30] = test system: NCI-H226 lung
[31] = test system: NCI-H23 lung
[32] = test system: NCI-H322M lung
[33] = test system: NCI-H460 NSCLC
[34] = test system: NCI-H522 lung
[35] = test system: NCI/ADR-RES ovarian
[36] = test system: OVCAR-3 ovarian
[37] = test system: OVCAR-4 ovarian
[38] = test system: OVCAR-5 ovarian
[39] = test system: OVCAR-8 ovarian
[40] = test system: PC-3 prostate
[41] = test system: RPMI-8226 leukemia
[42] = test system: RXF 393 renal
[43] = test system: SF-268 CNS
[44] = test system: SF-295 CNS
[45] = test system: SF-539 CNS
[46] = test system: SK-MEL-28 melanoma
[47] = test system: SK-MEL-5 melanoma
[48] = test system: SK-OV-3 ovarian
[49] = test system: SN12C renal
[50] = test system: SNB-19 CNS
[51] = test system: SNB-75 CNS
[52] = test system: SR leukemia
[53] = test system: SW-620 colon
[54] = test system: T-47D breast
[55] = test system: TK-10 renal
[56] = test system: U251 glioblastoma
[57] = test system: UACC-257 melanoma
[58] = test system: UO-31 renal
[59] = test system: SK-MEL-2 melanoma
[60] = test system: UACC-62 melanoma

O=C(NC[C@H](O)CO)c1ccncc1Nc1ccc(I)cc1F
GI50 [1]: 19.6 µM
TGI [1]: > 100 µM
GI50 [2]: 2.63 µM
TGI [2]: 34.5 µM
GI50 [3]: 0.3 µM
TGI [3]: 18.8 µM
GI50 [4]: 13.8 µM
TGI [4]: > 100 µM
GI50 [5]: 15 µM
TGI [5]: > 100 µM
GI50 [6]: 0.433 µM
TGI [6]: > 100 µM
GI50 [7]: 34.5 µM
TGI [7]: > 100 µM
GI50 [8]: < 0.01 µM
TGI [8]: 0.171 µM
GI50 [9]: 8.45 µM
TGI [9]: > 100 µM
GI50 [10]: 8.37 µM
TGI [10]: > 100 µM
GI50 [11]: 0.0278 µM
TGI [11]: 0.217 µM
GI50 [12]: 0.0614 µM
TGI [12]: 1.45 µM
GI50 [13]: 3.19 µM
TGI [13]: > 100 µM
GI50 [14]: < 0.01 µM
TGI [14]: 0.0114 µM
GI50 [15]: 0.25 µM
TGI [15]: > 100 µM
GI50 [16]: 0.484 µM
TGI [16]: 3.62 µM
GI50 [17]: 16 µM
TGI [17]: > 100 µM
GI50 [18]: 0.0156 µM
TGI [18]: > 100 µM
GI50 [19]: 0.0849 µM
TGI [19]: 10.9 µM
GI50 [20]: 0.423 µM
TGI [20]: > 100 µM
GI50 [21]: 0.0953 µM
TGI [21]: > 100 µM
GI50 [22]: 0.0887 µM
TGI [22]: 1.72 µM
GI50 [23]: < 0.01 µM
TGI [23]: 0.0235 µM
GI50 [24]: < 0.01 µM
GI50 [25]: 18.9 µM
TGI [25]: > 100 µM
GI50 [26]: 0.449 µM
TGI [26]: 24.4 µM
GI50 [27]: 0.0134 µM
TGI [27]: > 100 µM
GI50 [28]: 14.8 µM
TGI [28]: 36.2 µM
GI50 [29]: 12.3 µM
TGI [29]: 25.2 µM
GI50 [30]: 0.614 µM
TGI [30]: 47.4 µM
GI50 [31]: 0.0413 µM
TGI [31]: 1.73 µM
GI50 [32]: 0.498 µM
TGI [32]: > 100 µM
GI50 [33]: 1.55 µM
TGI [33]: > 100 µM
GI50 [34]: 13.6 µM
TGI [34]: > 100 µM
GI50 [35]: 22.3 µM
TGI [35]: > 100 µM
GI50 [36]: 14 µM
TGI [36]: > 100 µM
GI50 [37]: 21.5 µM
TGI [37]: > 100 µM
GI50 [38]: 0.0476 µM
TGI [38]: > 100 µM
GI50 [39]: 27 µM
TGI [39]: > 100 µM
GI50 [40]: > 100 µM
TGI [40]: > 100 µM
GI50 [41]: 7.66 µM
TGI [41]: 47.3 µM
GI50 [42]: 2.03 µM
TGI [42]: 17.4 µM
GI50 [43]: > 100 µM
TGI [43]: > 100 µM
GI50 [44]: 30.6 µM
TGI [44]: > 100 µM
GI50 [45]: 2.9 µM
TGI [45]: 25 µM
GI50 [46]: < 0.01 µM
TGI [46]: 0.0136 µM
GI50 [47]: 0.0331 µM
TGI [47]: 13.9 µM
GI50 [48]: 23.1 µM
TGI [48]: > 100 µM
GI50 [49]: 4.09 µM
TGI [49]: > 100 µM
GI50 [50]: 13.2 µM
TGI [50]: > 100 µM
GI50 [51]: 8.92 µM
TGI [51]: 68 µM
GI50 [52]: 1.33 µM
TGI [52]: 15.9 µM
GI50 [53]: < 0.01 µM
TGI [53]: > 100 µM
GI50 [54]: 26.1 µM
TGI [54]: > 100 µM
GI50 [55]: 2.24 µM
TGI [55]: 39 µM
GI50 [56]: 1.67 µM
TGI [56]: > 100 µM
GI50 [57]: < 0.01 µM
TGI [57]: 0.0319 µM
GI50 [58]: 0.354 µM
TGI [58]: 11.5 µM

NC(=S)N/N=C/c1ncccc1N
GI50 [1]: 0.242 µM
TGI [1]: 0.54 µM
GI50 [3]: 1.45 µM
TGI [3]: > 100 µM
GI50 [4]: 0.281 µM
TGI [4]: 0.585 µM
GI50 [5]: 0.675 µM
TGI [5]: 3.94 µM
GI50 [6]: 0.494 µM
TGI [6]: 15.8 µM
GI50 [7]: 0.291 µM
TGI [7]: 0.622 µM
GI50 [8]: 0.879 µM
TGI [8]: 2.23 µM
GI50 [9]: 0.584 µM
TGI [9]: 3.63 µM
GI50 [10]: 3.28 µM
TGI [10]: 18.3 µM
GI50 [13]: 3.47 µM
TGI [13]: > 100 µM
GI50 [14]: 0.233 µM
TGI [14]: 0.428 µM
GI50 [15]: 0.357 µM
TGI [15]: 1.41 µM
GI50 [16]: 0.47 µM
TGI [16]: 21.8 µM
GI50 [17]: 0.654 µM
TGI [17]: > 100 µM
GI50 [18]: 2.21 µM
TGI [18]: 43.4 µM
GI50 [19]: 0.816 µM
TGI [19]: 20.5 µM
GI50 [21]: 3.52 µM
TGI [21]: 24.8 µM
GI50 [23]: 0.586 µM
TGI [23]: 1.87 µM
GI50 [24]: 0.378 µM
TGI [24]: 0.933 µM
GI50 [25]: 0.487 µM
TGI [25]: 10.8 µM
GI50 [26]: 0.616 µM
TGI [26]: 11.9 µM
GI50 [27]: 7.8 µM
TGI [27]: > 100 µM
GI50 [28]: 1.41 µM
TGI [28]: 3.56 µM
GI50 [29]: 0.194 µM
TGI [29]: 0.342 µM
GI50 [30]: 1.7 µM
TGI [30]: 3.45 µM
GI50 [31]: 0.257 µM
TGI [31]: 0.518 µM
GI50 [32]: 7.28 µM
TGI [32]: > 100 µM
GI50 [33]: 0.413 µM
TGI [33]: 1.57 µM
GI50 [34]: 0.561 µM
TGI [34]: 7.76 µM
GI50 [35]: 1.44 µM
TGI [35]: 3.04 µM
GI50 [36]: 0.532 µM
TGI [36]: 8.64 µM
GI50 [37]: 4.39 µM
TGI [37]: 9.35 µM
GI50 [38]: 2.69 µM
TGI [38]: 8.73 µM
GI50 [39]: 0.241 µM
TGI [39]: 0.499 µM
GI50 [40]: 10.6 µM
TGI [40]: 28.2 µM
GI50 [41]: 0.203 µM
TGI [41]: 0.373 µM
GI50 [42]: 2.08 µM
TGI [42]: 23.6 µM
GI50 [43]: 0.318 µM
TGI [43]: 0.789 µM
GI50 [44]: 1.1 µM
TGI [44]: 3.86 µM
GI50 [45]: 0.212 µM
TGI [45]: 0.451 µM
GI50 [59]: 0.45 µM
TGI [59]: 0.772 µM
GI50 [46]: 2.67 µM
TGI [46]: 41.6 µM
GI50 [47]: 0.53 µM
TGI [47]: 1.96 µM
GI50 [48]: 2.67 µM
TGI [48]: 7.61 µM
GI50 [49]: 0.73 µM
TGI [49]: 3.14 µM
GI50 [50]: 0.709 µM
TGI [50]: 4.14 µM
GI50 [51]: 0.344 µM
TGI [51]: 2.9 µM
GI50 [52]: 0.192 µM
TGI [52]: 0.337 µM
GI50 [53]: 0.697 µM
TGI [53]: 21.4 µM
GI50 [54]: 1.33 µM
TGI [54]: 7.19 µM
GI50 [55]: 8.17 µM
TGI [55]: > 100 µM
GI50 [56]: 0.314 µM
TGI [56]: 0.855 µM
GI50 [57]: 3.17 µM
TGI [57]: 15 µM
GI50 [60]: 0.249 µM
TGI [60]: 0.581 µM

Reference: PubChem BioAssay (NCI)
